Data: BigSolDB 2.1

CC(C)C(=O)OCC(=O)[C@@]12O[C@H](C3CCCCC3)O[C@@H]1C[C@H]1[C@@H]3CCC4=CC(=O)C=C[C@]4(C)[C@H]3[C@@H](O)C[C@@]12C
solubility (mole fraction)
Conditions	in acetonitrile	in ethanol	in ethyl acetate	in isopropanol	in n-butanol	in n-propanol	in toluene
278.15 K	0.00485	0.00231	0.0515	0.00814	0.0669	0.0141	0.0297
280.65 K	0.00528	0.00276	0.0559	0.00948	0.0689	0.0164	0.0318
283.15 K	0.00576	0.00333	0.0604	0.0111	0.0716	0.0191	0.0342
285.65 K	0.00626	0.00398	0.0653	0.013	0.0743	0.0222	0.0367
288.15 K	0.00687	0.00478	0.0704	0.0151	0.0779	0.025	0.0392
290.65 K	0.00739	0.00568	0.076	0.0175	0.0815	0.029	0.0421
293.15 K	0.008	0.00674	0.0818	0.0203	0.0852	0.0334	0.0449
295.65 K	0.00865	0.00796	0.088	0.0234	0.0898	0.0385	0.0479
298.15 K	0.00937	0.00937	0.0945	0.0271	0.0942	0.0437	0.0511
300.65 K	0.0101	0.011	0.101	0.0312	0.0993	0.05	0.0544
303.15 K	0.0109	0.0129	0.109	0.0359	0.105	0.0567	0.0579
305.65 K	0.0117	0.0151	0.116	0.0411	0.111	0.0644	0.0616
308.15 K	0.0126	0.0176	0.124	0.047	0.118	0.0728	0.0654
310.65 K	0.0135	0.0204	0.133	0.0536	0.124	0.0825	0.0694
313.15 K	0.0143	0.0237	0.141	0.061	0.131	0.0925	0.0735
